Experimental data reported in patent US10344025B2, “GLS1 inhibitors for treating disease” (Board of Regents, The University of Texas System, priority 2014, dated 2019).

What was measured:
[1] = target: purified recombinant human GAC (GLS1) (Homo sapiens (Human), UniProt O94925); experiment: GLS1 Enzymatic Activity Assay (dual-coupled enzymatic assay, resorufin/Amplex UltraRed readout); type: biochemical;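 note: glutamate from GAC coupled via glutamate oxidase and peroxidase to resorufin, read as fluorescence (ex 530, em 590 nm) kinetically or at 20 min, four-parameter logistic IC50 fit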
Chain of purified recombinant human GAC (GLS1) (O94925 other isoform, or with tags, fused parts or gaps): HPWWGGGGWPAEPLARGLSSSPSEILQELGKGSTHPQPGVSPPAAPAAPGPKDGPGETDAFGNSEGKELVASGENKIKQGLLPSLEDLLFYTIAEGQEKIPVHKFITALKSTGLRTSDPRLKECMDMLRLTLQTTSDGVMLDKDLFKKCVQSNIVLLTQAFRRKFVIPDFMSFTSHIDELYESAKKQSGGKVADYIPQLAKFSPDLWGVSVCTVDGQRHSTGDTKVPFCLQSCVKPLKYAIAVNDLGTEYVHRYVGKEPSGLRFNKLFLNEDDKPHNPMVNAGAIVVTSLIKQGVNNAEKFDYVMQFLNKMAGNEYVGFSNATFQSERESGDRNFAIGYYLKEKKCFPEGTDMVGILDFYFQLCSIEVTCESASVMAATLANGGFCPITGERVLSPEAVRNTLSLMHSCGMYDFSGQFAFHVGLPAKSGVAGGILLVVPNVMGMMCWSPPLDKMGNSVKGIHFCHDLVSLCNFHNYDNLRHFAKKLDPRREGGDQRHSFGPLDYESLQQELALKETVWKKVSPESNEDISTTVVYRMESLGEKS

A549 cells = experiment: Proliferation Assay (A549 viability, Cell Titer Fluor, 72 hours); type: cell-based; conditions: Homo sapiens, A549, 72 h
How it was run: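 Cell Titer Fluor fluorescence after 72 h compound treatment (0.5% DMSO, 37 °C, 5% CO2) of A549 cells plated 24 h earlier at 1000/well. Four-parameter logistic fitting gave IC50.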

| IC50 [1] | EC50 (A549 cells) | SMILES |
| --- | --- | --- |
| < 100 nM | < 100 nM | O=C(NCc1cccc(OC(F)(F)F)c1)c1cn(CCC(F)Cn2cc(C(=O)NCc3cccc(C(F)(F)F)n3)nn2)nn1 (stereo not shown) [Example 436, 1-{2-fluoro-4-[4-({[3-(trifluoromethoxy)phenyl]methyl}carbamoyl)-1H-1,2,3-triazol-1-yl]butyl}-N-{[6-(trifluoromethyl)pyridin-2-yl]methyl}-1H-1,2,3-triazole-4-carboxamide] |
| < 100 nM | < 100 nM | O=C(NCc1ccc(C(F)(F)F)nc1)c1cn(CCC(F)Cn2cc(C(=O)NCc3cccc(OC(F)(F)F)c3)nn2)nn1 (stereo not shown) [Example 437, 1-{3-fluoro-4-[4-({[3-(trifluoromethoxy)phenyl]methyl}carbamoyl)-1H-1,2,3-triazol-1-yl]butyl}-N-{[6-(trifluoromethyl)pyridin-3-yl]methyl}-1H-1,2,3-triazole-4-carboxamide] |
| < 100 nM | < 100 nM | O=C(NCc1cccc(C(F)(F)F)n1)c1cn(CCC(F)Cn2cc(C(=O)NCc3cccc(OC(F)(F)F)c3)nn2)nn1 (stereo not shown) [Example 438, 1-{3-fluoro-4-[4-({[3-(trifluoromethoxy)phenyl]methyl}carbamoyl)-1H-1,2,3-triazol-1-yl]butyl}-N-{[6-(trifluoromethyl)pyridin-2-yl]methyl}-1H-1,2,3-triazole-4-carboxamide] |
| < 100 nM | < 100 nM | O=C(NCc1cc(C(F)(F)F)ccn1)c1cn(CCC(F)Cn2cc(C(=O)NCc3cccc(OC(F)(F)F)c3)nn2)nn1 (stereo not shown) [Example 439, 1-{3-fluoro-4-[4-({[3-(trifluoromethoxy)phenyl]methyl}carbamoyl)-1H-1,2,3-triazol-1-yl]butyl}-N-{[4-(trifluoromethyl)pyridin-2-yl]methyl}-1H-1,2,3-triazole-4-carboxamide] |
| < 100 nM | 100 to 500 nM | O=C(NCc1ncccc1F)c1cn(CCC(F)Cn2cc(C(=O)NCc3cccc(OC(F)(F)F)c3)nn2)nn1 (stereo not shown) [Example 440, 1-{3-fluoro-4-[4-({[3-(trifluoromethoxy)phenyl]methyl}carbamoyl)-1H-1,2,3-triazol-1-yl]butyl}-N-[(3-fluoropyridin-2-yl)methyl]-1H-1,2,3-triazole-4-carboxamide] |
| < 100 nM | < 100 nM | O=C(NCc1ccc(C(F)(F)F)cn1)c1cn(CCC(F)Cn2cc(C(=O)NCc3cc(OC(F)(F)F)ccc3F)nn2)nn1 (stereo not shown) [Example 441, 1-{2-fluoro-4-[4-({[5-(trifluoromethyl)pyridin-2-yl]methyl}carbamoyl)-1H-1,2,3-triazol-1-yl]butyl}-N-{[2-fluoro-5-(trifluoromethoxy)phenyl]methyl}-1H-1,2,3-triazole-4-carboxamide] |
| < 100 nM | < 100 nM | Cc1ccc(CNC(=O)c2nnc(CCC(F)Cn3cc(C(=O)NCc4cccc(OC(F)(F)F)c4)nn3)s2)cn1 (stereo not shown) [Example 442, 5-{3-fluoro-4-[4-({[3-(trifluoromethoxy)phenyl]methyl}carbamoyl)-1H-1,2,3-triazol-1-yl]butyl}-N-[(6-methylpyridin-3-yl)methyl]-1,3,4-thiadiazole-2-carboxamide] |
| < 100 nM | < 100 nM | Cc1ccc(CNC(=O)c2nnc(CCC(F)Cn3cc(C(=O)NCc4cc(OC(F)(F)F)ccc4F)nn3)s2)cn1 (stereo not shown) [Example 443, 5-{3-fluoro-4-[4-({[2-fluoro-5-(trifluoromethoxy)phenyl]methyl}carbamoyl)-1H-1,2,3-triazol-1-yl]butyl}-N-[(6-methylpyridin-3-yl)methyl]-1,3,4-thiadiazole-2-carboxamide] |
| < 100 nM | < 100 nM | O=C(NCc1ncccc1F)c1cn(CCC(F)Cn2cc(C(=O)NCc3cc(OC(F)(F)F)ccc3F)nn2)nn1 (stereo not shown) [Example 444, 1-{3-fluoro-4-[4-({[2-fluoro-5-(trifluoromethoxy)phenyl]methyl}carbamoyl)-1H-1,2,3-triazol-1-yl]butyl}-N-[(3-fluoropyridin-2-yl)methyl]-1H-1,2,3-triazole-4-carboxamide] |
| < 100 nM | < 100 nM | O=C(NCc1ccc(C(F)(F)F)cn1)c1cn(CC(F)CCc2nnc(C(=O)NCc3cccc(OC(F)(F)F)c3)s2)nn1 (stereo not shown) [Example 445, 5-{3-fluoro-4-[4-({[5-(trifluoromethyl)pyridin-2-yl]methyl}carbamoyl)-1H-1,2,3-triazol-1-yl]butyl}-N-{[3-(trifluoromethoxy)phenyl]methyl}-1,3,4-thiadiazole-2-carboxamide] |
| < 100 nM | < 100 nM | O=C(NCc1cc(C(F)(F)F)ccn1)c1cn(CC(F)CCc2nnc(C(=O)NCc3cccc(OC(F)(F)F)c3)s2)nn1 (stereo not shown) [Example 446, 5-{3-fluoro-4-[4-({[4-(trifluoromethyl)pyridin-2-yl]methyl}carbamoyl)-1H-1,2,3-triazol-1-yl]butyl}-N-{[3-(trifluoromethoxy)phenyl]methyl}-1,3,4-thiadiazole-2-carboxamide] |
| < 100 nM | < 100 nM | Cc1ccc(CNC(=O)c2cn(CC(F)CCc3nnc(C(=O)NCc4cc(OC(F)(F)F)ccc4F)s3)nn2)cn1 (stereo not shown) [Example 447, 5-[3-fluoro-4-(4-{[(6-methylpyridin-3-yl)methyl]carbamoyl}-1H-1,2,3-triazol-1-yl)butyl]-N-{[2-fluoro-5-(trifluoromethoxy)phenyl]methyl}-1,3,4-thiadiazole-2-carboxamide] |
| < 100 nM | < 100 nM | O=C(NCc1ccc(C(F)(F)F)cn1)c1cn(CC(F)CCc2nnc(C(=O)NCc3cc(OC(F)(F)F)ccc3F)s2)nn1 (stereo not shown) [Example 448, 5-{3-fluoro-4-[4-({[5-(trifluoromethyl)pyridin-2-yl]methyl}carbamoyl)-1H-1,2,3-triazol-1-yl]butyl}-N-{[2-fluoro-5-(trifluoromethoxy)phenyl]methyl}-1,3,4-thiadiazole-2-carboxamide] |
| < 100 nM | < 100 nM | O=C(NCc1cc(C(F)(F)F)ccn1)c1cn(CC(F)CCc2nnc(C(=O)NCc3cc(OC(F)(F)F)ccc3F)s2)nn1 (stereo not shown) [Example 449, 5-{3-fluoro-4-[4-({[4-(trifluoromethyl)pyridin-2-yl]methyl}carbamoyl)-1H-1,2,3-triazol-1-yl]butyl}-N-{[2-fluoro-5-(trifluoromethoxy)phenyl]methyl}-1,3,4-thiadiazole-2-carboxamide] |
| < 100 nM | 100 to 500 nM | O=C(NCc1cc(C(F)(F)F)ccn1)c1cn(CCC(F)Cn2cc(C(=O)NCc3ccccc3)nn2)nn1 (stereo not shown) [Example 450, N-benzyl-1-{2-fluoro-4-[4-({[4-(trifluoromethyl)pyridin-2-yl]methyl}carbamoyl)-1H-1,2,3-triazol-1-yl]butyl}-1H-1,2,3-triazole-4-carboxamide] |
| < 100 nM | < 100 nM | O=C(NCc1cc(OC(F)(F)F)ccc1F)c1cn(CC(F)CCc2nnc(C(=O)NCc3cc(C(F)(F)F)ccn3)s2)nn1 (stereo not shown) [Example 451, 5-{3-fluoro-4-[4-({[2-fluoro-5-(trifluoromethoxy)phenyl]methyl}carbamoyl)-1H-1,2,3-triazol-1-yl]butyl}-N-{[4-(trifluoromethyl)pyridin-2-yl]methyl}-1,3,4-thiadiazole-2-carboxamide] |
| < 100 nM | 100 to 500 nM | O=C(NCc1cc(OC(F)(F)F)ccc1F)c1cn(CCC(F)Cn2cc(C(=O)N[C@H](CO)c3ccccc3)nn2)nn1 (stereo partly drawn) [Example 452, 1-{2-fluoro-4-[4-({[2-fluoro-5-(trifluoromethoxy)phenyl]methyl}carbamoyl)-1H-1,2,3-triazol-1-yl]butyl}-N-[(1S)-2-hydroxy-1-phenylethyl]-1H-1,2,3-triazole-4-carboxamide] |
| < 100 nM | 100 to 500 nM | O=C(NCc1cc(OC(F)(F)F)ccc1F)c1cn(CCC(F)Cn2cc(C(=O)N[C@@H](CO)c3ccccc3)nn2)nn1 (stereo partly drawn) [Example 453, 1-{2-fluoro-4-[4-({[2-fluoro-5-(trifluoromethoxy)phenyl]methyl}carbamoyl)-1H-1,2,3-triazol-1-yl]butyl}-N-[(1R)-2-hydroxy-1-phenylethyl]-1H-1,2,3-triazole-4-carboxamide] |
| < 100 nM | 100 to 500 nM | O=C(NCc1ccccc1F)c1cn(CCC(F)Cn2cc(C(=O)NCc3cc(C(F)(F)F)ccn3)nn2)nn1 (stereo not shown) [Example 454, 1-[2-fluoro-4-(4-{[(2-fluorophenyl)methyl]carbamoyl}-1H-1,2,3-triazol-1-yl)butyl]-N-{[4-(trifluoromethyl)pyridin-2-yl]methyl}-1H-1,2,3-triazole-4-carboxamide] |
| < 100 nM | < 100 nM | O=C(NCc1cccc(C(F)(F)F)c1)c1cn(CCC(F)Cn2cc(C(=O)NCc3cc(C(F)(F)F)ccn3)nn2)nn1 (stereo not shown) [Example 455, 1-{2-fluoro-4-[4-({[3-(trifluoromethyl)phenyl]methyl}carbamoyl)-1H-1,2,3-triazol-1-yl]butyl}-N-{[4-(trifluoromethyl)pyridin-2-yl]methyl}-1H-1,2,3-triazole-4-carboxamide] |
| < 100 nM | < 100 nM | O=C(NCC1CCCCC1)c1cn(CCC(F)Cn2cc(C(=O)NCc3cc(C(F)(F)F)ccn3)nn2)nn1 (stereo not shown) [Example 456, 1-(4-{4-[(cyclohexylmethyl)carbamoyl]-1H-1,2,3-triazol-1-yl}-2-fluorobutyl)-N-{[4-(trifluoromethyl)pyridin-2-yl]methyl}-1H-1,2,3-triazole-4-carboxamide] |
| 500 to 5000 nM | 500 to 5000 nM | O=C(NCC1CCOCC1)c1cn(CCC(F)Cn2cc(C(=O)NCc3cc(C(F)(F)F)ccn3)nn2)nn1 (stereo not shown) [Example 457, 1-(2-fluoro-4-{4-[(oxan-4-ylmethyl)carbamoyl]-1H-1,2,3-triazol-1-yl}butyl)-N-{[4-(trifluoromethyl)pyridin-2-yl]methyl}-1H-1,2,3-triazole-4-carboxamide] |
| 100 to 500 nM | 100 to 500 nM | C[C@H](NC(=O)c1cn(CCC(F)Cn2cc(C(=O)NCc3cc(C(F)(F)F)ccn3)nn2)nn1)c1ccccc1 (stereo partly drawn) [Example 458, 1-[2-fluoro-4-(4-{[(1S)-1-phenylethyl]carbamoyl}-1H-1,2,3-triazol-1-yl)butyl]-N-{[4-(trifluoromethyl)pyridin-2-yl]methyl}-1H-1,2,3-triazole-4-carboxamide] |
